Read-outs that look alike come from different tables or passages of the source.
Legend:
229E mPRO = 229E mPRO (Human coronavirus 229E (HCoV-229E), UniProt P0C6X1); assay: 229E mPRO enzymatic assay; assay type: biochemical, Human Coronavirus (HCov) 229E
Method: Compounds were assayed using standard methods to assess compound activity and IC50. […] The assay buffer contained 20 mM of Tris-HCl (pH 7.3), 100 mM of NaCl, 1 mM of EDTA, 5 mM of TCEP and 0.1% BSA.
The compounds were added to an assay plate.
IC50 values of compounds were calculated with the GraphPad Prism software using the nonlinear regression model of log(inhibitor) vs. response—Variable slope (four parameters). The inhibition activity was calculated using the formula below, IC50 values was calculated using the Inhibition % data. Inhibition %=[(Sample−Average ZPE)/(Average HPE−Average ZPE)]*100%^# • ^#HEP: Hundred percent effect controls. […] Containing enzyme+substrate, no compound. • Sample: Compound activity testing wells. Containing compound+enzyme+substrate. • BG: Compound background control wells. Containing compound+substrate, no enzyme.

SARS-COV2 Mpro = SARS-COV2 Mpro (Severe acute respiratory syndrome coronavirus 2 (2019-nCoV) (SARS-CoV-2), UniProt P0DTD1); assay: COVID-19 (nCoV-2019, SARS-CoV2) Mpro enzymatic assay; assay type: biochemical; conditions: 25 nM Mpro, 25 μM substrate
HCoV 229E = HCoV 229E cytopathic effect (CPE) assay; assay type: cell-based, Human Coronavirus (HCov) 229E; conditions: unidentified human coronavirus, CellTiter Glo, read-out: 229 ECPE EC50
Method: Compounds were assayed using standard methods against multiple coronaviral strains, including HCoV 229E and OC43 strains. The antiviral activity of compounds was calculated based on the protection of the virus-induced CPE at each concentration normalized by the virus control.
Cytopathic effect (CPE) was measured by CellTiter Glo following the manufacturer's manual. The antiviral activity of compounds was calculated based on the protection of the virus-induced CPE at each concentration normalized by the virus control.

Sequence of 229E mPRO (P0C6X1 2966-3267 limits assumed): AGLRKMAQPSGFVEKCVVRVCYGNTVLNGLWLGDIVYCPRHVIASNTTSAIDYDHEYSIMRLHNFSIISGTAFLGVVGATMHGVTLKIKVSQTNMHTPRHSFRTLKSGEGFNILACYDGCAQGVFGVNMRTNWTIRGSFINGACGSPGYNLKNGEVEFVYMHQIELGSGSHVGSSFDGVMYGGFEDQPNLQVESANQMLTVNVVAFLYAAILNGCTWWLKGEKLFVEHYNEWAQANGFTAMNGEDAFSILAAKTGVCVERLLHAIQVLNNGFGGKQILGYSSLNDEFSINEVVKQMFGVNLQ

| SMILES | IC50 (229E mPRO; read-out: 229E mPRO IC50) | IC50 (SARS-COV2 Mpro) | EC50 (HCoV 229E) | IC50 (229E mPRO; 229E mPRO IC50 (μM)) |
| --- | --- | --- | --- | --- |
| COc1cccc2[nH]c(C(=O)N[C@@H](CC(C)C)C(=O)N[C@@H](C#N)Cc3cc(=O)[nH]c4ccccc34)cc12 (mixture of isomers) [Compound 237] | > 30 µM | > 30 µM |  |  |
| COc1cccc2[nH]c(C(=O)N[C@@H](CC(C)C)C(=O)N[C@H](C#N)Cc3cc[nH]n3)cc12 (mixture of isomers) [Compound 241] | > 30 µM | > 30 µM |  |  |
| COc1cccc2[nH]c(C(=O)N[C@@H](CC(C)C)C(=O)N[C@H](C#N)Cc3n[nH]c4ccccc34)cc12 (mixture of isomers) [Compound 245] | > 30 µM |  |  |  |
| COc1cccc2[nH]c(C(=O)N[C@@H](CC(C)C)C(=O)N[C@@H](C[C@@H]3CCNC3=O)C(C#N)N3CCCC3)cc12 (single isomer, unassigned) [331 (Isomer 1)] | < 22 µM |  | < 22 µM |  |
| COc1cccc2[nH]c(C(=O)N[C@@H](CC(C)C)C(=O)N[C@@H](C[C@@H]3CCNC3=O)C(C#N)N3CCCC3)cc12 (single isomer, unassigned) [331 (Isomer 2)] | < 22 µM |  |  |  |
| CC(C)C[C@H](NC(=O)CC(C)(O)c1ccc(Cl)cc1)C(=O)N[C@H](C#N)C[C@@H]1CCNC1=O (single isomer, unassigned) [365 (Isomer 1)] |  |  |  | 2 to 10 µM |
| COc1cccc2[nH]c(C(=O)N3CC(C45CC(C4)C5)C[C@H]3C(=O)N[C@H](C#N)C[C@@H]3CCNC3=O)cc12 (single isomer, unassigned) [385 (Isomer 1)] | < 22 µM |  | < 22 µM |  |
| COc1cccc2[nH]c(C(=O)N3CC(C45CC(C4)C5)C[C@H]3C(=O)N[C@H](C#N)C[C@@H]3CCNC3=O)cc12 (single isomer, unassigned) [385 (Isomer 2)] | < 22 µM |  |  |  |
| CC(C)(C)OC(=O)N1CCCCC12CCN([C@@H](CC1CC1)C(=O)N[C@H](C#N)C[C@@H]1CCNC1=O)C2=O (single isomer, unassigned) [473 (Isomer 1)] | > 30 µM |  |  |  |
| CC(C)(C)OC(=O)N1CCCCC12CCN([C@@H](CC1CC1)C(=O)N[C@H](C#N)C[C@@H]1CCNC1=O)C2=O (single isomer, unassigned) [473 (Isomer 2)] | > 30 µM | > 30 µM |  |  |
| COc1cccc2[nH]c(C(=O)N[C@@H](CC3CC3)C(=O)N[C@@]3(C#N)CC4CCC3[C@H]3C(=O)NC(=O)[C@@H]43)cc12 (single isomer, unassigned) [489 (Isomer 1)] | > 30 µM | > 30 µM |  |  |
| N#C[C@H](C[C@@H]1CCCNC1=O)NC(=O)[C@H](CC1CC1)NC(=O)c1cc2cccc(Cl)c2[nH]1 (single isomer, unassigned) [639 (Isomer 1)] | < 22 µM |  | < 22 µM |  |
| COc1cccc2[nH]c(C(=O)N[C@@H](CC(C)C)C(=O)N[C@H](C#N)C[C@@H]3CCNC3=O)cc12 [Compound 101, N-[(1S)-1-[[(1S)-1-cyano-2-[(3S)-2-oxopyrrolidin-3-yl]ethyl]carbamoyl]-3-methyl-butyl]-4-methoxy-1H-indole-2-carboxamide] | < 22 µM |  | < 22 µM |  |
| COc1cccc2[nH]c(C(=O)N[C@H](C(=O)N[C@H](C#N)C[C@@H]3CCNC3=O)[C@@H]3Cc4ccccc4O3)cc12 [Compound 147] | > 30 µM |  |  |  |
| COc1cccc2[nH]c(C(=O)N[C@H](C(=O)N[C@H](C#N)C[C@@H]3CCNC3=O)C3Cc4ccccc4C3)cc12 [Compound 149, N-[(1S)-2-[[(1S)-1-cyano-2-[(3S)-2-oxopyrrolidin-3-yl]ethyl]amino]-1-indan-2-yl-2-oxo-ethyl]-4-methoxy-1H-indole-2-carboxamide] | 2 to 10 µM |  | 2 to 10 µM |  |
| COc1cccc2[nH]c(C(=O)N[C@@H](Cc3cccc(Cl)c3)C(=O)N[C@H](C#N)C[C@@H]3CCNC3=O)cc12 [Compound 153] | 10 to 30 µM |  |  |  |
| COc1cccc2[nH]c(C(=O)N3C[C@H](OC(C)(C)C)C[C@H]3C(=O)N[C@H](C#N)C[C@@H]3CCNC3=O)cc12 [Compound 165, (2S,4R)-4-(tert-butoxy)-N—((S)-1-cyano-2-((S)-2-oxopyrrolidin-3-yl)ethyl)-1-(4-methoxy-1H-indole-2-carbonyl)pyrrolidine-2-carboxamide] | > 30 µM |  |  |  |
| COc1cccc2[nH]c(C(=O)N3C[C@H](C4CCCCC4)C[C@H]3C(=O)N[C@H](C#N)C[C@@H]3CCNC3=O)cc12 [Compound 167, (2S,4S)—N—((S)-1-cyano-2-((S)-2-oxopyrrolidin-3-yl)ethyl)-4-cyclohexyl-1-(4-methoxy-1H-indole-2-carbonyl)pyrrolidine-2-carboxamide] | 2 to 10 µM |  |  |  |
| COc1cccc2[nH]c(C(=O)N3CCC4(CC4)C[C@H]3C(=O)N[C@H](C#N)C[C@@H]3CCNC3=O)cc12 [Compound 183, (S)—N—((S)-1-cyano-2-((S)-2-oxopyrrolidin-3-yl)ethyl)-6-(4-methoxy-1H-indole-2-carbonyl)-6-azaspiro[2.5]octane-5-carboxamide] | 2 to 10 µM |  |  |  |
| N#C[C@H](C[C@@H]1CCNC1=O)NC(=O)[C@@H]1C[C@@H](c2ccccc2)CN1C(=O)/C=C/c1ccc(Cl)cc1F [Compound 209, (2S,4S)-1-((E)-3-(4-chloro-2-fluorophenyl)acryloyl)-N—((S)-1-cyano-2-((S)-2-oxopyrrolidin-3-yl)ethyl)-4-phenylpyrrolidine-2-carboxamide] | 10 to 30 µM |  |  |  |
| N#C[C@H](C[C@@H]1CCNC1=O)NC(=O)[C@@H]1CCCNN1C(=O)/C=C/c1ccc(Cl)cc1F [Compound 213, (S)-2-((E)-3-(4-chloro-2-fluorophenyl)acryloyl)-N—((S)-1-cyano-2-((S)-2-oxopyrrolidin-3-yl)ethyl)hexahydropyridazine-3-carboxamide] | > 30 µM |  |  |  |

| SMILES | IC50 (229E mPRO; read-out: 229E mPRO IC50) | IC50 (SARS-COV2 Mpro) | EC50 (HCoV 229E) | IC50 (229E mPRO; 229E mPRO IC50 (μM)) |
| --- | --- | --- | --- | --- |
| CN1CCCC[C@]12CCN([C@@H](CC1CC1)C(=O)N[C@H](C#N)C[C@@H]1CCNC1=O)C2=O [Compound 273C] | 2 to 10 µM |  |  |  |
| CCCN1C(=N)C([C@H](C[C@@H]2CCNC2=O)NC(=O)[C@H](CC(C)C)NC(=O)c2cc3c(OC)cccc3[nH]2)OC1=O (stereo partly drawn) [Compound 355] | 2 to 10 µM |  | > 30 µM |  |
| COc1cccc2[nH]c(C(=O)N[C@@H](CC(C)C)C(=O)N[C@@H](C[C@@H]3CCNC3=O)C3OC(=O)N(C(C)C)C3=N)cc12 (stereo partly drawn) [Compound 357] | > 30 µM |  |  |  |
| COc1cccc2[nH]c(C(=O)N[C@@H](CC(C)C)C(=O)N[C@@H](C[C@@H]3CCNC3=O)C3OC(=O)N(c4ccccc4)C3=N)cc12 (stereo partly drawn) [Compound 359] | 10 to 30 µM |  |  |  |
| CCCOc1cccc2[nH]c(C(=O)N[C@@H](CC(C)C)C(=O)N[C@H](C#N)C[C@@H]3CCNC3=O)cc12 [Compound 379] | < 22 µM |  | < 22 µM |  |
| COc1cccc2[nH]c(C(=O)N3CC4(CCOCC4)CC3C(=O)N[C@H](C#N)C[C@@H]3CCNC3=O)cc12 (stereo partly drawn) [Compound 387] | > 30 µM |  |  |  |
| COc1cccc2[nH]c(C(=O)N3C[C@H](OC)C[C@H]3C(=O)N[C@H](C#N)C[C@@H]3CCNC3=O)cc12 [Compound 407] | < 22 µM |  | < 22 µM |  |
| N#C[C@H](C[C@@H]1CCNC1=O)NC(=O)[C@H](CC1CC1)N1CCC2(CCCN2)C1=O (stereo partly drawn) [Compound 471] | 10 to 30 µM |  |  |  |
| N#C[C@H](C[C@@H]1CCNC1=O)NC(=O)[C@@H]1CS[C@H]2CC[C@H](NC(=O)OCC3c4ccccc4-c4ccccc43)C(=O)N21 [Compound 477] | > 30 µM |  |  |  |
| CC(C)C[C@H](NC(=O)c1cc2c(OC(F)F)cccc2[nH]1)C(=O)N[C@H](C#N)C[C@@H]1CCNC1=O [Compound 509] | < 22 µM |  | < 22 µM |  |
| N#C[C@H](C[C@@H]1CCNC1=O)NC(=O)[C@H](CC1CC1)NC(=O)c1cc2cc(Cl)ccc2[nH]1 [Compound 519] | < 22 µM |  | < 22 µM |  |
| N#C[C@H](C[C@@H]1CCNC1=O)NC(=O)[C@H](CC1CC1)NC(=O)c1cc2cccc(Cl)c2[nH]1 [Compound 531, 7-chloro-N-[(1S)-2-[[(1S)-1-cyano-2-[(3S)-2-oxopyrrolidin-3-yl]ethyl]amino]-1-(cyclopropylmethyl)-2-oxo-ethyl]-1H-indole-2-carboxamide] | < 22 µM |  | < 22 µM |  |
| CCO[C@@H]1C[C@@H](C(=O)N[C@H](C#N)C[C@@H]2CCNC2=O)N(C(=O)c2cc3c(OC)cccc3[nH]2)C1 [Compound 535] | > 30 µM |  |  |  |
| COc1cccc2[nH]c(C(=O)N[C@@H](CC3CCC3)C(=O)N[C@H](C#N)C[C@@H]3CCNC3=O)cc12 [Compound 577] | < 22 µM |  | < 22 µM |  |
| CCCNC(=O)OC(C#N)[C@H](C[C@@H]1CCNC1=O)NC(=O)[C@H](CC(C)C)NC(=O)c1cc2c(OC)cccc2[nH]1 (stereo partly drawn) [Compound 581] | > 30 µM |  |  |  |
| COc1cccc2[nH]c(C(=O)N[C@@H](CC(C)C)C(=O)N[C@@H](C[C@@H]3CCNC3=O)C(C#N)OC(=O)NC(C)C)cc12 (stereo partly drawn) [Compound 583] | > 30 µM |  |  |  |
| CC(C)C[C@H](NC(=O)/C=C/c1ccc(Cl)cc1F)C(=O)N[C@H](C#N)C[C@@H]1CCNC1=O [Compound 598] | 2 to 10 µM |  | < 22 µM |  |
| COc1cccc2[nH]c(C(=O)N[C@@H](CC(C)(C)C)C(=O)N[C@H](C#N)C[C@@H]3CCCNC3=O)cc12 [Compound 643, N-[(1S)-1-[[(1S)-1-cyano-2-[(3S)-2-oxo-3-piperidyl]ethyl]carbamoyl]-3,3-dimethyl-butyl]-4-methoxy-1H-indole-2-carboxamide] | < 22 µM |  | < 22 µM |  |
| COc1ccc(Cl)c2[nH]c(C(=O)N[C@@H](CC(C)(C)C)C(=O)N[C@H](C#N)C[C@@H]3CCCNC3=O)cc12 [Compound 737] |  |  | < 22 µM |  |
| COc1c(Cl)ccc2[nH]c(C(=O)N[C@@H](CC(C)(C)C)C(=O)N[C@H](C#N)C[C@@H]3CCCNC3=O)cc12 [Compound 739] |  |  | < 22 µM |  |
| CC(C)(C)C[C@H](NC(=O)c1cc2ccc(Cl)cc2[nH]1)C(=O)N[C@H](C#N)C[C@@H]1CCCNC1=O [Compound 745] |  |  | < 22 µM |  |
